Data published in article PMC6104039 (Nature Communications, 2018).

Tests used:
[1] = tested on: soleus muscle strips; assay: Palmitate oxidation in soleus muscle strips pre-treated in vitro; design: species or system mice; conditions: 1.5 h in vitro, 1 μM
Description: After a 30 min pre-incubation, muscles were transferred into vials containing 0.5 mCi/mL of [1-^14C]-palmitate in modified Krebs-Henseleit buffer for another 1 h. The reaction was stopped by removal of the muscles and addition of 1 M perchloric acid to the reaction mixture. ^14C-labelled CO2 was quantified as described above. The muscles were blotted dry and snap frozen in liquid nitrogen for subsequent lipid extraction and TLC. Muscles were homogenized using a Polytron (Kinematica, Littau-Lucerne, Switzerland) in 1.5 mL 2:1 chloroform-methanol (v/v). […] The upper aqueous phase was used to quantify ASM, and the lower organic phase was collected and dried under stream of N2, then reconstituted in hexane and spotted on a Silica Gel 60 F254 TLC plate. The TLC plate was developed in hexane/diethyl ether/glacial acetic acid (85:15:1), then air dried. TAG bands were visualised using iodine vapour staining, using an external standard to mark their position, then scraped into vials and quantified by liquid scintillation counting.

[2] = molecular target: T1, CerS1 (Homo sapiens, UniProt P27544); assay: CerS1 activity as a function of substrate concentration (Vmax, Khalf, mode of inhibition); type: biochemical; design: expressed in transfected cells; conditions: dihydrosphingosine and C18:0-CoA substrates
T1 sequence (P27544 1-350): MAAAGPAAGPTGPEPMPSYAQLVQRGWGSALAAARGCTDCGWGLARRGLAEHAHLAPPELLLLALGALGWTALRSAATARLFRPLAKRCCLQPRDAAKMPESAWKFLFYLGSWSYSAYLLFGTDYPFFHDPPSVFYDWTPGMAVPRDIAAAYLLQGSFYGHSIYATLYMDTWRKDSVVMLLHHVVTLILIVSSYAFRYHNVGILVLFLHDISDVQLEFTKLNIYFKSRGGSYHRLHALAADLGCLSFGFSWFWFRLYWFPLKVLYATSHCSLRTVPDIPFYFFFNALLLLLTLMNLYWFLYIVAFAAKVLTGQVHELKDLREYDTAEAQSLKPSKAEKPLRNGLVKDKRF

[3] = tested on: C57BL6/J mice; assay: Oral glucose tolerance test with labelled glucose and fasting insulin; type: in vivo; conditions: 5 mg/kg, chow or HFD
Description: Mice were fasted for 6 h, then received 50 mg stable isotope-labeled glucose (6,6-^2H glucose, Sigma Aldrich) by oral gavage. Blood glucose was measured with a glucose meter (Accu-Check, Roche, NSW, Australia) prior to and at 15, 30, 45, 60 and 90 min following gavage. Additional blood (~10 μL) was collected from the tail tip prior to and at 15 and 60 min following glucose gavage. These samples were used to perform mass isotopologue analysis of plasma glucose via gas chromatography–mass spectrometry (GC–MS)[70]. Specifically, plasma glucose was separated into the labelled glucose load and the endogenous (liver/kidney-derived) unlabelled glucose to permit differentiation of glucose disposal from endogenous glucose production (Supplementary Figure 10). Fasting blood insulin was measured using an Ultrasensitive Mouse Insulin ELISA Kit (Crystal Chem, Illinois, USA). […]
endogenous glucose synthesis. Plasma concentration of (a) labelled glucose resulting from an oral glucose load, and (b) endogenous glucose, during the oral glucose tolerance test. Mice

[4] = tested on: C57BL6/J mice; assay: Hyperinsulinemic-euglycemic clamps; type: in vivo; conditions: 5 mg/kg, chow or HFD
Description: At 5 weeks of diet/drug treatment, mice underwent surgery to implant catheters into the left carotid artery and right jugular vein. Catheters were flushed every 1–2 days with heparinised saline to maintain patency. Approximately 6–8 days post surgery, and after a ~5 h fast, a hyperinsulinemic-euglycemic clamp was conducted. Mice were conscious, unrestrained and were not handled during the procedure to minimize stress. At −90 min, a primed (5 μCi) continuous infusion (0.05 μCi/min) of [3,^3H]-glucose (PerkinElmer) was commenced. Samples were collected at −30, −20, −10 and 0 min for basal glucose turnover (Rd) determination. […] Once blood glucose was stable, four sequential samples were taken to determine insulin-stimulated glucose turnover. A bolus of 2[^14C]deoxyglucose (10 μCi; PerkinElmer) was then administered and blood sampled at 2, 5, 10, 15, 20 and 30 min, prior to collection of muscles for determination of glucose uptake.

[5] = tested on: SkM; assay: Western blotting of SkM (respiratory complex subunits, PGC-1α, AMPK, ACC); type: in vivo, mice
Description: Tissues were homogenized in RIPA buffer (100 mM NaCl, 10 mM Tris, pH 7.4, 1% Triton X-100, 0.5% sodium deoxycholate, 0.1% SDS, 1 mM EDTA, 10% Glycerol) containing complete protease inhibitor cocktail (Roche) and phosphatase inhibitors (3 mM β-glycerophosphate, 1 mM sodium orthovanadate, 5 mM sodium fluoride) by bead-beating in a Precellys 24 at 4 °C. Extracts were centrifuged at 6500 rpm for 10 min at 4 °C. Supernatant was collected and protein concentrations determined with the Bicinchoninic acid (BCA) assay (Thermo Scientific). Protein lysates (15 μg) were resolved on SDS-PAGE, transferred to polyvinylidene difluoride (PVDF) membrane, and immunoblotted with antibodies against Complex I subunit NADH dehydrogenase (#ab110242, Abcam), Complex II succinate dehydrogenase subunit B (#ab14714, Abcam), Complex III subunit Core 2 Ubiquinol-cytochrome c reductase (#ab14745, Abcam), Complex IV Cytochrome c oxidase (#11967S, Cell Signaling Technology), Complex V ATP synthase α subunit (#ab14748, Abcam), PGC1α (#AB3242, Merck Millipore), AMPKα (#2532S, Cell Signaling Technology), phospho- AMPKα (Thr172) (#2535S, Cell Signaling Technology), ACC (#3662S, Cell Signaling Technology), phospho-ACC (Ser 79, which also detects Ser 212 in ACC2, the predominant ACC isoform in SkM) (#3661S, Cell Signaling Technology) and pan 14-3-3 (#sc-629, Santa Cruz Biotechnology). All antibodies were used at a dilution of 1:1000. A common loading control was included on every gel to account for variation in relative band intensities between different blots. Antibody-antigen binding was detected using ECL Reagent (GE Healthcare) and imaged on a Fujifilm Las-4000 CCD camera. Bands were quantified by densitometry with Fuji ImageQuantTL software. Full images of blots in Fig. 6 are shown in Supplementary Figure 12.
Western blots for phospho-AMPK (Thr172), total AMPK, phospho-ACC (Ser79), and total
ACC in vehicle- or P053-treated mice on a chow or HFD. Denistometry for phospho-
AMPK/total AMPK and phospho-ACC/total ACC is shown (n = 10 mice per group).
(1 picture or pasted object on this page, not shown here)

**Q.** With `C[C@@](N)(CO)CCc1ccc(OCc2ccc(Cl)c(Cl)c2)cc1` [P053, (S)-2-amino-4-(4-(3,4-dichlorobenzyloxy)phenyl)-2-methylbutan-1-ol] as the molecule, how does the palmitate oxidation [1] read?
**A.** not affected

**Q.** And the mode of inhibition [2]?
**A.** non-competitive inhibitor

**Q.** And the “fasting insulin and glucose tolerance” value [3]?
**A.** no impact

**Q.** And the “iAUC for the labelled glucose load” value [3]?
**A.** no effect

**Q.** And the “glucose infusion rate, peripheral glucose disposal, insulin-stimulated glucose uptake in SkM” value [4]?
**A.** no impact

**Q.** And the “phosphorylation of AMPK or acetyl-CoA carboxylase (ACC)” value [5]?
**A.** no effect

**Q.** And the “protein expression of Pgc-1α” value [5]?
**A.** significantly increased

**Q.** What about the “respiratory complexes at the protein level” value [5] of the same molecule?
**A.** up-regulated
